Measured values taken from US5391540A, “Substituted pyridine compounds” (Rohm and Haas Company, priority 1993, dated 1995).

Experiments:
Assay in all cases: Pre-emergent herbicidal activity (Table A)
Assay type in all cases: in vivo
Barnyardgrass = settings: Echinochloa crus-galli, pre-emergence, Bygr, 11.2 kg/ha, 10-14 days, read-out: herbicidal rating (% inhibition)
Experimental: (§1) The herbicidal ratings used in Tables A and B were assigned according to a scale based on the percent inhibition of each plant species. The herbicide rating symbols in Tables A and B are defined as follows: […]
(§2) One set of pre-emergent tests was conducted as follows:
(§3) Topsoil was placed in a pan and compacted to a depth of 0.95 to 1.27 cm. from the top of the pan. A predetermined number of seeds of each of several monocotyledonous and dicotyledonous annual plant species and/or vegetative propagules of various perennial plant species were placed on top of the soil. The soil required to level fill a pan after seeding or adding vegetative propagules was weighed into another pan. A known amount of the test compound dissolved or suspended in an organic solvent or water and applied in acetone or water as a carrier was thoroughly mixed with this cover soil, and the herbicide/soil mixture was used as a cover layer for the previously prepared pan.
(§4) The plant species usually regarded as weeds which were utilized in one set of pre-emergent activity tests, the data for which are shown in Table A, are identified by letter headings printed diagonally above the columns according to the following legend: […]

Canada thistle = settings: Cirsium arvense, pre-emergence, Cath, 11.2 kg/ha, 10-14 days, read-out: herbicidal rating (% inhibition)
Experimental: as §1, §2, §3, §4

Cocklebur = settings: Xanthium strumarium, pre-emergence, Cobu, 11.2 kg/ha, 10-14 days, read-out: herbicidal rating (% inhibition)
Experimental: as §1, §2, §3, §4

Common Lambsquarters = settings: Chenopodium album, pre-emergence, Colq, 11.2 kg/ha, 10-14 days, read-out: herbicidal rating (% inhibition)
Experimental: as §1, §2, §3, §4

Downy Brome = settings: Bromus tectorum, pre-emergence, Dobr, 11.2 kg/ha, 10-14 days, read-out: herbicidal rating (% inhibition)
Experimental: as §1, §2, §3, §4

Morningglory = settings: Ipomoea, pre-emergence, Mogl, 11.2 kg/ha, 10-14 days, read-out: herbicidal rating (% inhibition)
Experimental: as §1, §2, §3, §4

Pennsylvania Smartweed = settings: pre-emergence, Pesw, 11.2 kg/ha, 10-14 days, read-out: herbicidal rating (% inhibition)
Experimental: as §1, §2, §3, §4

Quackgrass = settings: pre-emergence, Rhqg, 11.2 kg/ha, 10-14 days, read-out: herbicidal rating (% inhibition)
Experimental: as §1, §2, §3, §4

Velvetleaf = settings: Abutilon theophrasti, pre-emergence, Vele, 11.2 kg/ha, 10-14 days, read-out: herbicidal rating (% inhibition)
Experimental: as §1, §2, §3, §4

Yellow Nutsedge = settings: Cyperus, pre-emergence, Yens, 11.2 kg/ha, 10-14 days, read-out: herbicidal rating (% inhibition)
Experimental: as §1, §2, §3, §4

Rhizome Johnsongrass = settings: Sorghum halepense, pre-emergence, Rhjg, 11.2 kg/ha, 10-14 days, read-out: herbicidal rating (% inhibition)
Experimental: as §1, §2, §3, §4

SMILES	inhibition at 11200 g/ha (Barnyardgrass)	inhibition at 11200 g/ha (Canada thistle)	inhibition at 11200 g/ha (Cocklebur)	inhibition at 11200 g/ha (Common Lambsquarters)	inhibition at 11200 g/ha (Downy Brome)	inhibition at 11200 g/ha (Morningglory)	inhibition at 11200 g/ha (Pennsylvania Smartweed)	inhibition at 11200 g/ha (Quackgrass)	inhibition at 11200 g/ha (Velvetleaf)	inhibition at 11200 g/ha (Yellow Nutsedge)	inhibition at 11200 g/ha (Rhizome Johnsongrass)
COC(=O)c1c(C(F)(F)F)nc(OC)c(N)c1CC(C)C [Compound 32, 3-pyridinecarboxylic acid, 5-amino-6-methoxy-4-(2-methylpropyl)-2-(trifluoromethyl)-, methyl ester]	75 to 100%	0 to 24%	0 to 24%	75 to 100%	0 to 24%	0 to 24%	50 to 74%	0 to 24%	0 to 24%	0 to 24%	
C#CCOC(=O)c1c(C(F)(F)F)nc(OC)c(C(=O)OC)c1CC(C)C [Compound 82, 3,5-pyridinedicarboxylic acid, 2-methoxy-4-(2-methylpropyl)-6-(trifluoromethyl)-, 3-methyl 5-(2-propynyl)ester]	75 to 100%	75 to 100%	50 to 74%	75 to 100%	75 to 100%	75 to 100%	75 to 100%	50 to 74%	75 to 100%	25 to 49%	
COC(=O)c1c(OC)nc(C(F)(F)F)c(C(=O)OC)c1CBr [Compound 87, 3,5-pyridinedicarboxylic acid, 4-(bromomethyl)-2-methoxy-6-(trifluoromethyl)-, dimethyl ester]	0 to 24%	0 to 24%	0 to 24%	50 to 74%	0 to 24%	0 to 24%		0 to 24%	0 to 24%	0 to 24%	0 to 24%
CCOc1nc(C(F)(F)F)c(C(=O)OC)c(CC(C)C)c1C(=O)N(C)C [Compound 17, 3-pyridinecarboxylic acid, 5-[(dimethylamino)carbony]-6-ethoxy-4-(2-methylpropyl)-2-(trifluoromethyl)-, methyl ester]	75 to 100%	0 to 24%	0 to 24%	50 to 74%		0 to 24%	0 to 24%	0 to 24%	0 to 24%	0 to 24%	0 to 24%
COC(=O)c1c(OC)nc(C(F)(F)F)c(C(=O)OCCF)c1CC(C)C [Compound 81, 3,5-pyridinedicarboxylic acid, 2-methoxy-4-(2-methylpropyl)-6-(trifluoromethyl)-, 5-(2-fluoroethyl) 3-methyl ester]	75 to 100%	75 to 100%	75 to 100%	75 to 100%	75 to 100%	75 to 100%	75 to 100%	75 to 100%	75 to 100%	75 to 100%	
COC(=O)c1c(OC)nc(C(F)(F)F)c(C=O)c1CC(C)C [Compound 79, 3-pyridinecarboxylic acid, 5-formy1-2-methoxy-4-(2-methylpropyl)-6-(trifluoromethyl)-, methyl ester]	75 to 100%	75 to 100%	0 to 24%	75 to 100%	75 to 100%	50 to 74%	75 to 100%	75 to 100%	50 to 74%	0 to 24%	
COC(=O)c1c(OC)nc(C(F)(F)F)c(C(=O)OC)c1CC(=O)O [Compound 13, 3,5-pyridinedicarboxylic acid, 4-(carboxymethyl)-2-methoxy-6-(trifluoromethyl)-, dimethyl ester]	0 to 24%	0 to 24%	0 to 24%	0 to 24%	0 to 24%	0 to 24%		0 to 24%	0 to 24%	0 to 24%	0 to 24%
CCOc1nc(C(F)(F)F)c(C(=O)SC)c(CC(C)C)c1C(=O)SC [Compound 19, 3,5-pyridinedicarbothioic acid, 2-ethoxy-4-(2-methylpropyl)-6-(trifluoromethyl)-, S,S-dimethyl ester]	75 to 100%	25 to 49%	25 to 49%	75 to 100%		50 to 74%	75 to 100%	75 to 100%	75 to 100%	0 to 24%	0 to 24%
CCCOc1nc(C(F)(F)F)c(C(=O)OC)c(CC(C)C)c1C(=O)OCC [Compound 7, 3,5-pyridinedicarboxylic acid, 4-(2-methylpropyl)-2-propyloxy-6-(trifluoromethyl)-,3-ethyl 5-methyl ester]	75 to 100%	0 to 24%	0 to 24%	75 to 100%		0 to 24%	25 to 49%	0 to 24%	0 to 24%	0 to 24%	0 to 24%
COC(=O)c1c(OC)nc(C(F)(F)F)c(C(=O)Cl)c1CC(C)C [Compound 84, 3-pyridinecarboxylic acid, 5-(chlorocarbonyl)-2-methoxy-4-(2-methylpropyl)-6-(trifluoromethyl)-, methyl ester]	75 to 100%	75 to 100%	0 to 24%	75 to 100%	75 to 100%	25 to 49%		0 to 24%	0 to 24%	0 to 24%	0 to 24%
CCOc1nc(C(F)(F)F)c(C(=O)OC)c(CC(C)C)c1C(=O)SC [Compound 8, 3-pyridinecarboxylic acid, 6-ethoxy-4-(2-methylpropyl)-5-[(methylthio)carbonyl]-2-(trifluoromethyl)-, methyl ester]	75 to 100%	0 to 24%	0 to 24%	75 to 100%		75 to 100%	75 to 100%	75 to 100%	75 to 100%	0 to 24%	0 to 24%
CCOc1nc(C(F)(F)F)c(C(=O)OC)c(CC(C)C)c1C(=O)OC [Compound 6, 3,5-pyridinedicarboxylic acid, 2-ethoxy-4-(2-methylpropyl)-6-(trifluoromethyl)-, dimethyl ester]	75 to 100%	75 to 100%	25 to 49%	75 to 100%		75 to 100%	75 to 100%	75 to 100%	75 to 100%	25 to 49%	75 to 100%
COCc1c(C(=O)OC)c(OC)nc(C(F)(F)F)c1C(=O)OC [Compound 88, 3,5-pyridinedicarboxylic acid, 2-methoxy-4-(methoxymethyl)-6-(trifluoromethyl)-, dimethyl ester]	75 to 100%	0 to 24%	0 to 24%	50 to 74%	25 to 49%	25 to 49%		0 to 24%	25 to 49%	0 to 24%	0 to 24%
COC(=O)c1c(OCC#N)nc(C(F)(F)F)c(C(=O)OC)c1CC(C)C [Compound 80, 3,5-pyridinedicarboxylic acid, 2-(cyanomethoxy)-4-(2-methylpropyl)-6-(trifluoromethyl)-, dimethyl ester]	75 to 100%	75 to 100%	25 to 49%	75 to 100%	75 to 100%	75 to 100%	75 to 100%	25 to 49%	75 to 100%	50 to 74%	
